Data as given in US20240158446A1, “CYCLIC COMPOUND HAVING SELECTIVE INHIBITORY ACTION ON KRAS OVER HRAS AND NRAS” (CHUGAI SEIYAKU KABUSHIKI KAISHA, priority 2021, published 2024).

Experiments:
[1] = target: GDP-bound HRAS wild-type protein (Homo sapiens, UniProt P01112); test: Binding to HRAS by surface plasmon resonance (SPR), Single Cycle Kinetics; settings: SPR KD ratio HRAS/KRAS, class symbols
[2] = target: GDP-bound KRAS wild-type protein (Homo sapiens, UniProt P01116); test: Binding to KRAS by surface plasmon resonance (SPR), Single Cycle Kinetics; settings: SPR Single Cycle Kinetics, GDP-bound KRAS wild-type protein, 1:1 binding model; read-out: KRAS KD
Sequence of GDP-bound KRAS wild-type protein (P01116 whole entry): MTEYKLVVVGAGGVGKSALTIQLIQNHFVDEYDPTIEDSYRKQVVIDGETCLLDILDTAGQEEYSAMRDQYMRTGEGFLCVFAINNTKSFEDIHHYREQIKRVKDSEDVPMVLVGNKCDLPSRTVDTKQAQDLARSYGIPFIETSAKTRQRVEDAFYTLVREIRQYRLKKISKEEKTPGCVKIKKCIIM

[3] = target: GDP-bound NRAS wild-type protein (Homo sapiens, UniProt P01111); test: Binding to NRAS by surface plasmon resonance (SPR), Single Cycle Kinetics; settings: SPR KD ratio NRAS/KRAS, class symbols
Sequence of GDP-bound NRAS wild-type protein (P01111 whole entry): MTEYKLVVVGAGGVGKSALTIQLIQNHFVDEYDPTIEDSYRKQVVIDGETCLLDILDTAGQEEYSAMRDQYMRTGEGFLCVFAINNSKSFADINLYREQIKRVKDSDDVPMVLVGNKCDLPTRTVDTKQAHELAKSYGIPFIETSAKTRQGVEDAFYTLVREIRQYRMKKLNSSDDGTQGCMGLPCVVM

[4] = system: human lung cancer strain NCI-H441;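 also: cell proliferation inhibition after four days measured by CellTiter-Glo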

Sequence of GDP-bound HRAS wild-type protein (P01112 whole entry): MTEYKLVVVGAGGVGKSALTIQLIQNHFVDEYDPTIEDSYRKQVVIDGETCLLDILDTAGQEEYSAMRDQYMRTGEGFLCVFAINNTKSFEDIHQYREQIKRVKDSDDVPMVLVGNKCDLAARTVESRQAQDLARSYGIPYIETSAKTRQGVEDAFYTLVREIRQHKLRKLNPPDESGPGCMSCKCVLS

Kd [2] [nM] | IC50 [4] [nM] | Structure (SMILES) | HRAS/KRAS (ratio of KD value with respect to GDP-bound HRAS wild-type protein to KD value with respect to KRAS) [1] | NRAS/KRAS (ratio of KD value with respect to GDP-bound NRAS wild-type protein to KD value with respect to KRAS) [3]
3.4 | 121 | CCC[C@H]1C(=O)N[C@@H](CC(C)C)C(=O)N2C[C@@H](OC)C[C@H]2C(=O)N(C)[C@H]2C/C=C\CCN(C2=O)[C@@H](Cc2ccc(C)cc2)C(=O)N(C)CC(=O)N[C@@H](CCc2cc(F)c(C(F)(F)F)c(F)c2)C(=O)N2C[C@H](OCC)C[C@H]2C(=O)NC2(CC(C)(C)C2)C(=O)N(C)[C@@H](C2CCCC2)C(=O)N(C)[C@H](C(=O)N(C)C)CC(=O)N1C [PP2553] | B (a compound having 3 or more and less than 10 is denoted as B) | A (a compound having 10 or more and less than 20 is denoted as A)
5.6 | 271 | CCC[C@H]1C(=O)N[C@@H](CC(C)C)C(=O)N2C[C@@H](OC)C[C@H]2C(=O)N(C)[C@H]2C/C=C\CCN(C2=O)[C@@H](Cc2ccc(C)cc2)C(=O)N(C)CC(=O)N[C@@H](CCc2ccc(C(F)(F)F)c(OC)c2)C(=O)N2C[C@H](OCC)C[C@H]2C(=O)NC2(CC(C)(C)C2)C(=O)N(C)[C@@H](C2CCCC2)C(=O)N(C)[C@H](C(=O)N(C)C)CC(=O)N1C [PP2554] | B (a compound having 3 or more and less than 10 is denoted as B) | A (a compound having 10 or more and less than 20 is denoted as A)
4.1 | 212 | CCC[C@H]1C(=O)N[C@@H](CC(C)C)C(=O)N2C[C@@H](OC)C[C@H]2C(=O)N(C)[C@H]2C/C=C\CCN(C2=O)[C@@H](Cc2ccc(C)cc2)C(=O)N(C)CC(=O)N[C@@H](CCc2ccc(C(F)(F)F)c(Cl)c2)C(=O)N2C[C@H](OCC)C[C@H]2C(=O)NC2(CC(C)(C)C2)C(=O)N(C)[C@@H](C2CCCC2)C(=O)N(C)[C@H](C(=O)N(C)C)CC(=O)N1C [PP2555] | B (a compound having 3 or more and less than 10 is denoted as B) | A (a compound having 10 or more and less than 20 is denoted as A)
0.21 | 9.4 | CCC[C@H]1C(=O)N[C@@H]([C@@H](C)CC)C(=O)N2C[C@@H](OC)C[C@H]2C(=O)N(C)[C@H]2C/C=C\CCN(C2=O)[C@@H](Cc2ccc(C)cc2)C(=O)N(C)CC(=O)N[C@@H](CCc2cc(F)c(C(F)(F)F)c(F)c2)C(=O)N2C[C@H](OCC)C[C@H]2C(=O)NC2(CC(C)(C)C2)C(=O)N(C)[C@@H](C2CCCC2)C(=O)N(C)[C@H](C(=O)N(C)C)CC(=O)N1C [PP2556] | B (a compound having 3 or more and less than 10 is denoted as B) | A (a compound having 10 or more and less than 20 is denoted as A)
0.3 | 14.2 | CCC[C@H]1C(=O)N[C@@H]([C@@H](C)CC)C(=O)N2C[C@@H](OC)C[C@H]2C(=O)N(C)[C@H]2C/C=C\CCN(C2=O)[C@@H](Cc2ccc(C)cc2)C(=O)N(C)CC(=O)N[C@@H](CCc2ccc(C(F)(F)F)c(OC)c2)C(=O)N2C[C@H](OCC)C[C@H]2C(=O)NC2(CC(C)(C)C2)C(=O)N(C)[C@@H](C2CCCC2)C(=O)N(C)[C@H](C(=O)N(C)C)CC(=O)N1C [PP2557] | B (a compound having 3 or more and less than 10 is denoted as B) | A (a compound having 10 or more and less than 20 is denoted as A)
0.91 | 103 | CCC[C@H]1C(=O)N[C@@H]([C@@H](C)CC)C(=O)N(C2CC2)CC(=O)N(C)[C@H]2C/C=C\CCN(C2=O)[C@@H](Cc2ccc(C)cc2)C(=O)N(C)CC(=O)N[C@@H](CCc2ccc(Cl)c(Cl)c2)C(=O)N2C[C@H](OCC)C[C@H]2C(=O)NC2(CC(C)(C)C2)C(=O)N(C)[C@@H](C2CCCC2)C(=O)N(C)[C@H](C(=O)N(C)C)CC(=O)N1C [PP2559] | A (a compound having 10 or more and less than 20 is denoted as A) | A (a compound having 10 or more and less than 20 is denoted as A)
1 | 46.3 | CCC[C@H]1C(=O)N[C@@H]([C@@H](C)CC)C(=O)N(C2CC2)CC(=O)N(C)[C@H]2C/C=C\CCN(C2=O)[C@@H](Cc2ccc(C)cc2)C(=O)N(C)CC(=O)N[C@@H](CCc2cc(F)c(C(F)(F)F)c(F)c2)C(=O)N2C[C@H](OCC)C[C@H]2C(=O)NC2(CC(C)(C)C2)C(=O)N(C)[C@@H](C(CC)CC)C(=O)N(C)[C@H](C(=O)N(C)C)CC(=O)N1C [PP2560] | A (a compound having 10 or more and less than 20 is denoted as A) | AA (a compound having 20 or more is denoted as AA)
1.9 | 96.4 | CCC[C@H]1C(=O)N[C@@H]([C@@H](C)CC)C(=O)N(C2CC2)CC(=O)N(C)[C@H]2C/C=C\CCN(C2=O)[C@@H](Cc2ccc(C)cc2)C(=O)N(C)CC(=O)N[C@@H](CCc2ccc(Cl)c(Cl)c2)C(=O)N2C[C@H](OCC)C[C@H]2C(=O)NC2(CC(C)(C)C2)C(=O)N(C)[C@@H](C(CC)CC)C(=O)N(C)[C@H](C(=O)N(C)C)CC(=O)N1C [PP2561] | A (a compound having 10 or more and less than 20 is denoted as A) | AA (a compound having 20 or more is denoted as AA)
0.91 | 46.5 | CCO[C@@H]1C[C@H]2C(=O)NC3(CC(C)(C)C3)C(=O)N(C)[C@@H](C3CCCC3)C(=O)N(C)[C@H](C(=O)N(C)C)CC(=O)N(C)[C@@H](COC)C(=O)N[C@@H]([C@@H](C)CC)C(=O)N(C3CC3)CC(=O)N(C)[C@H]3C/C=C\CCN(C3=O)[C@@H](CC3CCCCC3)C(=O)N(C)CC(=O)N[C@@H](CCc3cc(F)c(C(F)(F)F)c(F)c3)C(=O)N2C1 [PP2562] | B (a compound having 3 or more and less than 10 is denoted as B) | B (a compound having 3 or more and less than 10 is denoted as B)
2.3 | 108 | CCO[C@@H]1C[C@H]2C(=O)NC3(CC(C)(C)C3)C(=O)N(C)[C@@H](C3CCCC3)C(=O)N(C)[C@H](C(=O)N(C)C)CC(=O)N(C)[C@@H](COC)C(=O)N[C@@H]([C@@H](C)CC)C(=O)N(C3CC3)CC(=O)N(C)[C@H]3C/C=C\CCN(C3=O)[C@@H](CC3CCCCC3)C(=O)N(C)CC(=O)N[C@@H](CCc3ccc(Cl)c(Cl)c3)C(=O)N2C1 [PP2563] | A (a compound having 10 or more and less than 20 is denoted as A) | A (a compound having 10 or more and less than 20 is denoted as A)
7.6 | 222 | CCO[C@@H]1C[C@H]2C(=O)NC3(CC(C)(C)C3)C(=O)N(C)[C@@H](C(CC)CC)C(=O)N(C)[C@H](C(=O)N(C)C)CC(=O)N(C)[C@@H](COC)C(=O)N[C@@H]([C@@H](C)CC)C(=O)N(C3CC3)CC(=O)N(C)[C@H]3C/C=C\CCN(C3=O)[C@@H](CC3CCCCC3)C(=O)N(C)CC(=O)N[C@@H](CCc3cc(F)c(C(F)(F)F)c(F)c3)C(=O)N2C1 [PP2564] | A (a compound having 10 or more and less than 20 is denoted as A) | A (a compound having 10 or more and less than 20 is denoted as A)
0.57 | 17.6 | CCC[C@H]1C(=O)N[C@@H]([C@@H](C)CC)C(=O)N(C2CC2)CC(=O)N(C)[C@H]2C/C=C\CCN(C2=O)[C@@H](CC2CCC(F)(F)CC2)C(=O)N(C)CC(=O)N[C@@H](CCc2cc(F)c(C(F)(F)F)c(F)c2)C(=O)N2C[C@H](OCC)C[C@H]2C(=O)NC2(CC(C)(C)C2)C(=O)N(C)[C@@H](C2CCCC2)C(=O)N(C)[C@H](C(=O)N(C)C)CC(=O)N1C [PP2566] | B (a compound having 3 or more and less than 10 is denoted as B) | A (a compound having 10 or more and less than 20 is denoted as A)
1.9 | 102 | CCC[C@H]1C(=O)N[C@@H]([C@@H](C)CC)C(=O)N(C2CC2)CC(=O)N(C)[C@H]2C/C=C\CCN(C2=O)[C@@H](CC2CCC(F)(F)CC2)C(=O)N(C)CC(=O)N[C@@H](CCc2ccc(Cl)c(Cl)c2)C(=O)N2C[C@H](OCC)C[C@H]2C(=O)NC2(CC(C)(C)C2)C(=O)N(C)[C@@H](C2CCCC2)C(=O)N(C)[C@H](C(=O)N(C)C)CC(=O)N1C [PP2567] | A (a compound having 10 or more and less than 20 is denoted as A) | A (a compound having 10 or more and less than 20 is denoted as A)
1.2 | 23.4 | CCO[C@@H]1C[C@H]2C(=O)NC3(CC(C)(C)C3)C(=O)N(C)[C@@H](C(CC)CC)C(=O)N(C)[C@H](C(=O)N(C)C)CC(=O)N(C)[C@@H](COC)C(=O)N[C@@H]([C@@H](C)CC)C(=O)N(C3CC3)CC(=O)N(C)[C@H]3C/C=C\CCN(C3=O)[C@@H](CC3CCC(F)(F)CC3)C(=O)N(C)CC(=O)N[C@@H](CCc3cc(F)c(C(F)(F)F)c(F)c3)C(=O)N2C1 [PP2568] | B (a compound having 3 or more and less than 10 is denoted as B) | A (a compound having 10 or more and less than 20 is denoted as A)
